Counter-ions that a name gives are not always drawn.
Columns and labels:
[1] = target: T1, thromboxane A2 (TxA2) receptor (Cavia porcellus, UniProt A0A286Y4I8); assay: TxA2 antagonist action by binding assay; conditions: washed guinea pig platelets, 1 nM [3H]-SQ29,548, 45 minutes at 25° C.
T1 construct: to obtain washed platelets; from tissue; host or cells: washed platelets of male Hartley guinea pigs
T1 sequence (A0A286Y4I8 1-347): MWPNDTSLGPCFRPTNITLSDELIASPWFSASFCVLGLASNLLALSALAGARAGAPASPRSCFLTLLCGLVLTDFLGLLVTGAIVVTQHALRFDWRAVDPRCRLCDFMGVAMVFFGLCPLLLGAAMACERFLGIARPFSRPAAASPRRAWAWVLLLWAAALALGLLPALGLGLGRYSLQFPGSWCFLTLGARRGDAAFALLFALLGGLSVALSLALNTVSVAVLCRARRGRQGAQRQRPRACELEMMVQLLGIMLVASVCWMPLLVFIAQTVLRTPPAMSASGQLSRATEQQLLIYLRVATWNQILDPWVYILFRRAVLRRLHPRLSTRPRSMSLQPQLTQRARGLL
Experimental: (1) TxA2 antagonist action by binding assay Guinea pigs (Hartley; male; body weight=approximately 500 g) were anesthetized with ether, and the blood was collected into sodium citrate (final concentration=0.38%). The preparation of platelets was carried out at room temperature. The platelet rich plasma was obtained by centrifugation at 980 rpm for 10 minutes. One tenth (1/10) amount of 77 mM-EDTA-Na (pH 7.4) was added to the platelet rich plasma, and the mixture was centrifuged for 10 minutes at 3000 rpm. The suspension was again centrifuged at 3000 rpm for 10 minutes. The precipitate was further resuspended in a suspension buffer (2) shown in Table 2 to obtain washed platelets. The number of platelets was counted by an automatic blood cell counter (Sysmex Microcellcounter F-800) and the sample was diluted with the suspension buffer to 4×10^8 cells/ml. The platelets, sample solution and labeled compounds were placed into plastic tubes in amounts (volumes) shown in the following Table 3, incubated for 45 minutes at 25° C., and then the mixture was filtered using a cell harvester (Brandel cell harvester M-24R) by a glass fiber filter (Whatman GF/B). After the filter was sufficiently dried, the scintillation was counted by a scintillation counter (Beckman LS5000TD). IC50 was calculated from (binding)/(control binding) ratio in the presence of an antagonist. [table 3: the next 10 blocks are its lines as printed, fixed-width]

rat platelet = assay: Inhibitory activity of aggregation in rat platelet; type: cell-based; conditions: rat platelet rich plasma, arachidonic acid (final concentration 0.5 mM) as inducer; read-out: C: Inhibitory activity of aggregation in rat platelet (IC50; μM)
Experimental: (3) Inhibitory Activity of Aggregation in Rat Platelet The abdomen of etherized rat was open, and blood was taken from the abdominal arteries, using a sodium citrate solution (final concentration was 0.38%). The blood was centrifuged at 1100 rpm for 10 minutes, and the supernatent was separated as the platelet rich plasma. The plasma was further centrifuged at 2000 rpm for 15 minutes to obtain the supernatent as a platelet poor plasma. The platelet rich plasma (280 μl) was placed in a measuring cuvette and preincubated for 1 minute at 37° C. Then, a sample solution (10 μl) was added. After 2 minutes, an arachidonic acid solution (final concentration=0.5 mM) (10 μl) was added as an inducer. The change in light transmission was recorded for 5 minutes.

| IC50 [1] | IC50 (rat platelet) | SMILES |
| --- | --- | --- |
| 0.1 µM | 1.7 µM | O=C(O)Cc1ccc(NC(=O)C(COc2ccc(Cl)cc2)NS(=O)(=O)c2ccc(F)cc2)cc1 (racemic) [Example 137, (RS)-N-(4-(carboxymethyl)phenyl)-3-(4-chlorophenoxy)-2-(4-fluorobenzenesulfonylamino)propanamide] |
| 0.29 µM | 1.6 µM | CCSCCC(NS(=O)(=O)c1ccc(Cl)cc1)C(=O)Nc1ccc(CCC(=O)O)cc1 (racemic) [Example 244, (RS)-N-(4-(2-carboxyethyl)phenyl)-2-(4-chlorobenzenesulfonylamino)-4-ethylthiobutanamide] |
| 0.051 µM | 0.53 µM | O=C(O)Cc1ccc(NC(=O)C(COc2cccc(Cl)c2)NS(=O)(=O)c2ccc(Br)cc2)cc1 (racemic) [Example 144, (RS)-2-(4-bromobenzenesulfonylamino)-N-(4-(carboxymethyl)phenyl)-3-(3-chlorophenoxy) propanamide] |
| 0.0071 µM | 0.055 µM | O=C(O)Cc1ccc(NC(=O)[C@H](Cc2ccccc2)NS(=O)(=O)c2ccc(Br)cc2)cc1 [Example 252, (S)-2-(4-bromobenzenesulfonylamino)-N-(4-(carboxymethyl)phenyl)-3-phenylpropanamide] |
| – | 0.53 µM | CCCC(NS(=O)(=O)c1ccc(Cl)cc1)C(=O)Nc1ccc(CC(=O)O)cc1 (racemic) [Example 221, (RS)-N-(4-(carboxymethyl)phenyl)-2-(4-chlorobenzenesulfonylamino)pentanamide] |
| 0.3 µM | 1.7 µM | Cc1ccc(S(=O)(=O)NC(COC2CCCCO2)C(=O)Nc2ccc(CC(=O)O)cc2)cc1 (racemic) [Example 56, (RS)-N-(4-(carboxymethyl)phenyl)-2-(4-methylbenzenesulfonylamino)-3-(tetrahydropyran-2-yloxy)propanamide] |
| – | 0.055 µM | CCSCC[C@H](NS(=O)(=O)c1ccc(Br)cc1)C(=O)Nc1ccc(CC(=O)O)cc1 [Example 245, (S)-2-(4-bromobenzenesulfonylamino)-N-(4-(carboxymethyl)phenyl)-4-ethylthiobutanamide] |
| 0.057 µM | – | CCCC[C@H](NS(=O)(=O)c1ccc(Br)cc1)C(=O)Nc1ccc(CCC(=O)O)cc1 [Example 228, (S)-2-(4-bromobenzenesulfonylamino)-N-(4-(2-carboxyethyl)phenyl)hexanamide] |
| – | 1.7 µM | CC(C)C(NS(=O)(=O)c1ccc(Cl)cc1)C(=O)Nc1ccc(CC(=O)O)cc1 (racemic) [Example 231, (RS)-N-(4-(carboxymethyl)phenyl)-2-(4-chlorobenzenesulfonylamino)-3-methylbutanamide] |
| – | 1.7 µM | O=C(O)CCCCCNC(=O)C(Cn1ccnc1)NS(=O)(=O)c1ccc(Cl)cc1 (racemic) [Example 100, (RS)-N-(5-carboxypentyl)-2-(4-chlorobenzenesulfonylamino)-3-(1H-imidazol-1-yl)propanamide hydrochloride] |
| – | 0.56 µM | CCCC[C@H](NS(=O)(=O)c1ccc(Cl)cc1)C(=O)Nc1ccc(CCC(=O)O)cc1 [Example 225, (S)-N-(4-(2-carboxyethyl)phenyl)-2-(4-chlorobenzenesulfonylamino)hexanamide] |
| – | 1.7 µM | O=C(O)CCCCNC(=O)C(COc1cccnc1)NS(=O)(=O)c1ccc(Cl)cc1 (racemic) [Example 119, (RS)-N-(4-carboxybutyl)-2-(4-chlorobenzenesulfonylamino)-3-(pyridin-3-yloxy)propanamide hydrochloride] |
| – | 0.17 µM | CCSCC[C@H](NS(=O)(=O)c1ccc(Cl)cc1)C(=O)Nc1ccc(CC(=O)O)cc1 [Example 243, (S)-N-(4-(carboxymethyl)phenyl)-2-(4-chlorobenzenesulfonylamino)-4-ethylthiobutanamide] |
| – | 2.3 µM | O=C(O)CCc1ccc(NC(=O)C(CC2CCCCC2)NS(=O)(=O)c2ccc(Cl)cc2)cc1 (racemic) [Example 261, (RS)-N-(4-(2-carboxyethyl)phenyl)-2-(4-chlorobenzenesulfonylamino)-3-cyclohexylpropanamide] |
| – | 0.55 µM | CCCCCCC(NS(=O)(=O)c1ccc(Cl)cc1)C(=O)Nc1ccc(CC(=O)O)cc1 (racemic) [Example 230, (RS)-N-(4-(carboxymethyl)phenyl)-2-(4-chlorobenzenesulfonylamino)octanamide] |

Further lines, the compound ahead of its results:

| SMILES | IC50 [1] | IC50 (rat platelet) |
| --- | --- | --- |
| COc1ccc(S(=O)(=O)NC(COC2CCCCO2)C(=O)Nc2ccc(CC(=O)O)cc2)cc1 (racemic) [Example 57, (RS)-N-(4-(carboxymethyl)phenyl)-2-(4-methoxybenzenesulfonylamino)-3-(tetrahydropyran-2-yloxy)propanamide] | 0.15 µM | 0.53 µM |
| O=C(O)Cc1ccc(NC(=O)C(COc2cccnc2)NS(=O)(=O)c2ccc(Cl)cc2)cc1 (racemic) [Example 116, (RS)-N-(4-(carboxymethyl)phenyl)-2-(4-chlorobenzenesulfonylamino)-3-(pyridin-3-yloxy)propanamide hydrochloride] | 0.5 µM | 0.95 µM |
| O=C(O)Cc1ccc(NC(=O)C(CCc2ccccc2)NS(=O)(=O)c2ccc(Cl)cc2)cc1 (racemic) [Example 172, (RS)-N-(4-(carboxymethyl)phenyl)-2-(4-chlorobenzenesulfonylamino)-4-phenylbutanamide] | 0.072 µM | 1.7 µM |
| O=C(O)Cc1ccc(NC(=O)[C@@H](Cc2ccccc2)NS(=O)(=O)c2ccc(Br)cc2)cc1 [Example 253, (R)-2-(4-bromobenzenesulfonylamino)-N-(4-(carboxymethyl)phenyl)-3-phenylpropanamide] | 1.3 µM | – |
| O=C(O)Cc1ccc(NC(=O)[C@H](Cc2c[nH]c3ccccc23)NS(=O)(=O)c2ccc(Cl)cc2)cc1 [Example 258, (S)-N-(4-(carboxymethyl)phenyl)-2-(4-chlorobenzenesulfonylamino)-3-(3-indolyl) propanamide] | – | 0.53 µM |
| O=C(O)c1ccc(NC(=O)[C@H](Cc2ccccc2)NS(=O)(=O)c2ccc(Br)cc2)cc1 [Example 256, (S)-2-(4-bromobenzenesulfonylamino)-N-(4-carboxyphenyl)-3-phenylpropanamide] | – | 0.17 µM |
| CCCC[C@H](NS(=O)(=O)c1ccc(Br)cc1)C(=O)Nc1ccc(CC(=O)O)cc1 [Example 227, (S)-2-(4-bromobenzenesulfonylamino)-N-(4-(carboxymethyl)phenyl)hexanamide] | 0.045 µM | – |
| O=C(O)CCCCNC(=O)C(COC1CCCCO1)NS(=O)(=O)c1ccc(Cl)cc1 (racemic) [Example 48, (RS)-N-(4-carboxybutyl)-2-(4-chlorobenzenesulfonylamino)-3-(tetrahydropyran-2-yloxy)propanamide] | – | 1.7 µM |
| CCCCC(NS(=O)(=O)c1ccc(Cl)cc1)C(=O)Nc1ccc(CC(=O)O)cc1 (racemic) [Example 222, (RS)-N-(4-(carboxymethyl)phenyl)-2-(4-chlorobenzenesulfonylamino)hexanamide] | – | 0.17 µM |
| CCSCC[C@H](NS(=O)(=O)c1ccc(Br)cc1)C(=O)Nc1ccc(CCC(=O)O)cc1 [Example 246, (S)-2-(4-bromobenzenesulfonylamino)-N-(4-(2-carboxyethyl)phenyl)-4-ethylthio-butanamide] | 0.034 µM | – |
| CSCCC(NS(=O)(=O)c1ccc(Cl)cc1)C(=O)Nc1ccc(CCC(=O)O)cc1 (racemic) [Example 236, (RS)-N-(4-(2-carboxyethyl)phenyl)-2-(4-chlorobenzenesulfonylamino)-4-methylthiobutanamide] | 0.42 µM | – |
| O=C(O)CCCNC(=O)C(COC1CCCCO1)NS(=O)(=O)c1ccc(Cl)cc1 (racemic) [Example 47, (RS)-N-(3-carboxypropyl)-2-(4-chlorobenzenesulfonylamino)-3-(tetrahydropyran-2-yloxy)propanamide] | – | 1.5 µM |
| CCC(NS(=O)(=O)c1ccc(Cl)cc1)C(=O)Nc1ccc(CC(=O)O)cc1 (racemic) [Example 220, (RS)-N-(4-(carboxymethyl)phenyl)-2-(4-chlorobenzenesulfonylamino) butanamide] | – | 0.53 µM |

— patent publication US5650428A, “Arylsulfonamide derivative and pharmaceutical compositions and use thereof” (NKK Corporation, priority 1993, dated 1997)
